Reference: the NIST ThermoML archive (doi:10.1021/je050169y)
Numbers after ± are expanded uncertainties.

What was measured:
[1] = 101 kPa, Liquid
[2] = xn = mol fraction of the nth substance listed; settings: 101 kPa, Liquid

ClC(Cl)Cl [trichloromethane]
[1]
Settings	mass density [kg/m3]	speed of sound [m/s]	viscosity [mPa·s]
303.15 K	1469.21 ± 1.9	969 ± 3	0.534 ± 0.015
313.15 K	1449.74 ± 1.9	934 ± 3	0.491 ± 0.014

CCCO [propan-1-ol]
[1]
Settings	mass density [kg/m3]	speed of sound [m/s]	viscosity [mPa·s]
303.15 K	796.66 ± 0.8	1193 ± 3	1.719 ± 0.041
313.15 K	788.31 ± 0.83	1159 ± 3	1.363 ± 0.033

ClC(Cl)Cl [trichloromethane] + CCCCO
[2]
Settings	mass density, 303.15 K [kg/m3]	mass density, 313.15 K [kg/m3]	speed of sound, 303.15 K [m/s]	speed of sound, 313.15 K [m/s]	viscosity, 303.15 K [mPa·s]	viscosity, 313.15 K [mPa·s]
x1 = 0.0512	–	823.95 ± 0.93	–	1172 ± 3	–	1.67 ± 0.041
x1 = 0.0513	832.44 ± 0.91	–	1207 ± 4	–	2.125 ± 0.051	–
x1 = 0.0999	861.44 ± 0.95	–	1189 ± 3	–	1.989 ± 0.048	–
x1 = 0.1	–	852.45 ± 0.97	–	1154 ± 3	–	1.566 ± 0.039
x1 = 0.149	890.91 ± 1	881.47 ± 1	1170 ± 3	1135 ± 3	1.829 ± 0.044	1.45 ± 0.036
x1 = 0.2009	922.47 ± 1.1	912.53 ± 1.1	1152 ± 3	1116 ± 3	1.683 ± 0.041	1.341 ± 0.033
x1 = 0.2506	953.06 ± 1.1	942.58 ± 1.1	1134 ± 3	1098 ± 3	1.531 ± 0.037	1.23 ± 0.031
x1 = 0.2999	983.75 ± 1.1	972.85 ± 1.2	1118 ± 3	1081 ± 3	1.394 ± 0.034	1.136 ± 0.029
x1 = 0.3659	1025.5 ± 1.2	1013.85 ± 1.2	1097 ± 3	1060 ± 3	1.224 ± 0.03	1.018 ± 0.026
x1 = 0.407	1051.86 ± 1.3	1039.75 ± 1.3	1084 ± 3	1047 ± 3	1.137 ± 0.028	0.943 ± 0.024
x1 = 0.4515	1080.69 ± 1.3	1067.95 ± 1.3	1071 ± 3	1034 ± 3	1.045 ± 0.026	0.878 ± 0.023
x1 = 0.4997	1112.25 ± 1.4	1099 ± 1.4	1056 ± 3	1019 ± 3	0.96 ± 0.024	0.82 ± 0.021
x1 = 0.5502	1145.88 ± 1.4	1132.03 ± 1.4	1043 ± 3	1006 ± 3	0.877 ± 0.023	0.758 ± 0.02
x1 = 0.6011	1180.26 ± 1.5	–	1030 ± 3	–	0.82 ± 0.021	–
x1 = 0.6012	–	1165.78 ± 1.5	–	993 ± 3	–	0.712 ± 0.019
x1 = 0.6527	1215.51 ± 1.5	1200.35 ± 1.5	1018 ± 3	981 ± 3	0.754 ± 0.02	0.671 ± 0.018
x1 = 0.702	1249.87 ± 1.6	–	1007 ± 3	–	0.709 ± 0.019	–
x1 = 0.7021	–	1234 ± 1.6	–	970 ± 3	–	0.633 ± 0.017
x1 = 0.7519	1285.1 ± 1.6	1268.52 ± 1.6	997 ± 3	961 ± 3	0.676 ± 0.018	0.615 ± 0.017
x1 = 0.802	1320.98 ± 1.7	–	989 ± 3	–	0.636 ± 0.017	–
x1 = 0.8021	–	1303.85 ± 1.7	–	952 ± 3	–	0.579 ± 0.016
x1 = 0.8517	1357.17 ± 1.7	–	981 ± 3	–	0.622 ± 0.017	–
x1 = 0.8518	–	1339.4 ± 1.7	–	945 ± 3	–	0.572 ± 0.016
x1 = 0.9023	1394.7 ± 1.8	–	975 ± 3	–	0.587 ± 0.016	–
x1 = 0.9024	–	1376.18 ± 1.8	–	939 ± 3	–	0.547 ± 0.015
x1 = 0.9509	1431.43 ± 1.8	–	971 ± 3	–	0.569 ± 0.016	–
x1 = 0.951	–	1412.42 ± 1.8	–	936 ± 3	–	0.524 ± 0.015
x1 = 1	1469.21 ± 1.9	1449.74 ± 1.9	969 ± 3	934 ± 3	0.534 ± 0.015	0.491 ± 0.014

ClC(Cl)Cl [trichloromethane] + CCCO
[2]
Settings	mass density, 303.15 K [kg/m3]	mass density, 313.15 K [kg/m3]	speed of sound, 303.15 K [m/s]	speed of sound, 313.15 K [m/s]	viscosity, 303.15 K [mPa·s]	viscosity, 313.15 K [mPa·s]
x1 = 0.0521	834.23 ± 0.85	825.28 ± 0.89	1171 ± 3	1136 ± 3	1.628 ± 0.039	1.302 ± 0.032
x1 = 0.0996	868.17 ± 0.9	858.68 ± 0.94	1153 ± 3	1117 ± 3	1.541 ± 0.037	1.243 ± 0.031
x1 = 0.1504	904.1 ± 0.96	894.03 ± 1	1134 ± 3	1098 ± 3	1.435 ± 0.035	1.163 ± 0.029
x1 = 0.201	939.51 ± 1	928.92 ± 1.1	1116 ± 3	1080 ± 3	1.331 ± 0.032	1.077 ± 0.027
x1 = 0.2498	973.47 ± 1.1	962.29 ± 1.1	1100 ± 3	1064 ± 3	1.233 ± 0.03	1.013 ± 0.026
x1 = 0.3057	1011.95 ± 1.1	1000.09 ± 1.2	1083 ± 3	1047 ± 3	1.113 ± 0.028	0.919 ± 0.023
x1 = 0.3499	1042.15 ± 1.2	1029.85 ± 1.2	1070 ± 3	1034 ± 3	1.044 ± 0.026	0.872 ± 0.022
x1 = 0.4031	1078.28 ± 1.2	1065.26 ± 1.3	1056 ± 3	1018 ± 3	0.956 ± 0.024	0.811 ± 0.021
x1 = 0.451	1110.46 ± 1.3	1097 ± 1.3	1042 ± 3	1006 ± 3	0.884 ± 0.023	0.752 ± 0.02
x1 = 0.5056	1147.02 ± 1.4	1132.88 ± 1.4	1028 ± 3	992 ± 3	0.813 ± 0.021	0.703 ± 0.019
x1 = 0.5541	1179.18 ± 1.4	1164.5 ± 1.4	1017 ± 3	981 ± 3	0.76 ± 0.02	0.662 ± 0.018
x1 = 0.5994	1209.1 ± 1.5	1193.91 ± 1.5	1007 ± 3	972 ± 3	0.723 ± 0.019	0.635 ± 0.017
x1 = 0.6511	1243.11 ± 1.5	1227.27 ± 1.5	997 ± 3	961 ± 3	0.68 ± 0.018	0.605 ± 0.016
x1 = 0.7033	1277.26 ± 1.6	1260.87 ± 1.6	988 ± 3	951 ± 3	0.654 ± 0.018	0.592 ± 0.016
x1 = 0.7506	1308.1 ± 1.6	1291.08 ± 1.6	980 ± 3	944 ± 3	0.629 ± 0.017	0.57 ± 0.016
x1 = 0.8	1340.17 ± 1.7	1322.66 ± 1.7	974 ± 3	939 ± 3	0.608 ± 0.017	0.558 ± 0.015
x1 = 0.8507	1373.01 ± 1.7	1354.88 ± 1.8	970 ± 3	933 ± 3	0.596 ± 0.016	0.547 ± 0.015
x1 = 0.9001	1404.92 ± 1.8	1386.24 ± 1.8	967 ± 3	931 ± 3	0.579 ± 0.016	0.531 ± 0.015
x1 = 0.9484	1436.03 ± 1.8	1416.96 ± 1.9	966 ± 3	931 ± 3	0.562 ± 0.016	0.517 ± 0.015
x1 = 1	1469.21 ± 1.9	1449.74 ± 1.9	969 ± 3	934 ± 3	0.534 ± 0.015	0.491 ± 0.014

CCCO [propan-1-ol] + ClC(Cl)Cl
[2], x2 = 0
Settings	mass density [kg/m3]	speed of sound [m/s]	viscosity [mPa·s]
303.15 K	796.66 ± 0.8	1193 ± 3	1.719 ± 0.041
313.15 K	788.31 ± 0.83	1159 ± 3	1.363 ± 0.033

CCCCO [butan-1-ol] + ClC(Cl)Cl
[2], x2 = 0
Settings	mass density [kg/m3]	speed of sound [m/s]	viscosity [mPa·s]
303.15 K	802.31 ± 0.86	1227 ± 4	2.274 ± 0.054
313.15 K	794.37 ± 0.89	1193 ± 3	1.783 ± 0.043

CCCCO [butan-1-ol]
[1]
Settings	mass density [kg/m3]	speed of sound [m/s]	viscosity [mPa·s]
303.15 K	802.31 ± 0.86	1227 ± 4	2.274 ± 0.054
313.15 K	794.37 ± 0.89	1193 ± 3	1.783 ± 0.043
